The source of these data is patent publication US20090099195A1 (ASTRAZENECA AB, priority 2007, published 2009).

This assay has as its target T1, hP2X3 (human Purinergic P2X receptors subtype 3), clone B (Homo sapiens, UniProt P56373).
T1 sequence (P56373 1-397): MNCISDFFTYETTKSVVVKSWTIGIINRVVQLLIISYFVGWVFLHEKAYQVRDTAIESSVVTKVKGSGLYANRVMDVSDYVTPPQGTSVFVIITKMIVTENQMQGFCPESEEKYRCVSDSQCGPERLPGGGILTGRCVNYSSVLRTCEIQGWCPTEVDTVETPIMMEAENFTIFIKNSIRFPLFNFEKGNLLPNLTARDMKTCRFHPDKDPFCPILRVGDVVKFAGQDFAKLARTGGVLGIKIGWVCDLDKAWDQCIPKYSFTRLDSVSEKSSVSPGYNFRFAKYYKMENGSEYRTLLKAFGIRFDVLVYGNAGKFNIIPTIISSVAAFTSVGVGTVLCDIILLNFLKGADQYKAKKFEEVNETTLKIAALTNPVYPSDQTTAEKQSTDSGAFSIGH
The assay is described as follows: hP2X3 FLIPR calcium (Fluo-4) antagonist assay, clone B. The conditions noted are these: Human P2X3 FLIPR Clone B IC50 (nM), RLE cells expressing hP2X3 clone B (NM_002559); agonist 500 nM α,β-methylene-ATP.

Consider `CNCCNc1nc(NCC(c2ccccc2)c2ccccc2)c2c(n1)C(=O)N(C(C)C)C2` [Example 109, 4-(2,2-Diphenyl-ethylamino)-6-isopropyl-2-(2-methylamino-ethylamino)-5,6-dihydro-pyrrolo[3,4-d]pyrimidin-7-one], for which the IC50 came to 7200 nM. On to `CC(=O)N1CCN(c2nc(NCc3cc4ccccc4nc3C)c3c(n2)C(=O)N(C(C)C)C3)CC1` [Example 241, 2-(4-acetylpiperazin-1-yl)-6-isopropyl-4-((2-methylquinolin-3-yl)methylamino)-5H-pyrrolo[3,4-d]pyrimidin-7(6H)-one], for which the IC50 amounted to 68 nM. Next, `CCC(C)N1Cc2c(NCc3cnc4ccccc4c3)nc(N3CCN(C(C)=O)CC3)nc2C1=O` (single isomer, unassigned; (-)) [Example 309, (−)-2-(4-acetylpiperazin-1-yl)-4-(3-quinolylmethylamino)-6-sec-butyl-5H-pyrrolo[3,4-d]pyrimidin-7-one]: 42 nM; `CC(=O)N1CCN(c2nc(N[C@H](C)c3ccccc3C(F)(F)F)c3c(n2)C(=O)N(C(C)C)C3)CC1` [Example 226, (R)-2-(4-acetylpiperazin-1-yl)-6-isopropyl-4-(1-(2-(trifluoromethyl)phenyl)ethylamino)-5H-pyrrolo[3,4-d]pyrimidin-7(6H)-one]: 4400 nM. For `CC(=O)N1CCN(c2nc3c(c(N4CCC[C@@H]4C(=O)N4CCC(C)CC4)n2)CN(C(C)C)C3=O)CC1` [Example 303, 4-(4-acetylpiperazin-1-yl)-2-[(2R)-2-(4-methylpiperidine-1-carbonyl)pyrrolidin-1-yl]-8-propan-2-yl-3,5,8-triazabicyclo[4.3.0]nona-2,4,10-trien-7-one], the IC50 was 2300 nM.

On to `CC(C)N1Cc2c(NCc3cnc4ccccc4c3)nc(N3CCC(F)(F)C3)nc2C1=O` [Example 216, 2-(3,3-difluoropyrrolidin-1-yl)-6-isopropyl-4-(3-quinolymethylamino)-5H-pyrrolo[3,4-d]pyrimidin-7-one], for which the half-maximal inhibitory concentration (IC50) is 680 nM.

Regarding `CCOC(=O)C(CNc1nc(N2CCN(C(C)=O)CC2)nc2c1CN(C(C)C)C2=O)c1ccccc1` (stereo not drawn) [Example 2, ethyl 3-{[2-(4-acetylpiperazin-1-yl)-6-isopropyl-7-oxo-6,7-dihydro-5H-pyrrolo[3,4-d]pyrimidin-4-yl]amino}-2-phenylpropanoate], the IC50 was 1900 nM. Next, `CC(C)N1Cc2c(NCc3cnc4ccccc4c3)nc(N(C)C)nc2C1=O` [Example 220, 2-(dimethylamino)-6-(1-methylethyl)-4-[(quinolin-3-ylmethyl)amino]-5,6-dihydro-7H-pyrrolo[3,4-d]pyrimidin-7-one]: 9600 nM; `CC(=O)N1CCN(c2nc3c(c(N4CCC[C@@H]4C(=O)OC(C)(C)C)n2)CN(C(C)C)C3=O)CC1` [Example 277, tert-butyl (2R)-1-[4-(4-acetylpiperazin-1-yl)-7-oxo-8-propan-2-yl-3,5,8-triazabicyclo[4.3.0]nona-1,3,5-trien-2-yl]pyrrolidine-2-carboxylate]: 7700 nM; `CC(=O)N1CCN(c2nc(NC(C)c3ccc(C(C)(C)C)cc3)c3c(n2)C(=O)N(C(C)C)C3)CC1` (stereo not drawn) [Example 5, 2-(4-acetylpiperazin-1-yl)-4-{[1-(4-tert-butylphenyl)ethyl]amino}-6-isopropyl-5,6-dihydro-7H-pyrrolo[3,4-d]pyrimidin-7-one]: 440 nM. Next, `CC(=O)N1CCN(c2nc3c(c(N4CCC[C@@H]4C(=O)N4CCc5ccccc54)n2)CN(C(C)C)C3=O)CC1` [Example 279, 4-(4-acetylpiperazin-1-yl)-2-[(2R)-2-(2,3-dihydroindole-1-carbonyl)pyrrolidin-1-yl]-8-propan-2-yl-3,5,8-triazabicyclo[4.3.0]nona-1,3,5-trien-7-one]: 1800 nM; `CC(=O)N1CCN(c2nc3c(c(N4CCCC4Cc4ccc(F)cc4)n2)CN(C(C)C)C3=O)CC1` (stereo not drawn) [Example 129, 2-(4-Acetylpiperazin-1-yl)-4-[2-(4-fluorobenzyl)-pyrrolidin-1-yl]-6-isopropyl-5H-pyrrolo[3,4-d]pyrimidin-7(6H)-one]: 150 nM; `COc1ccccc1CC1CCCN1c1nc(N2CCN(C(C)=O)CC2)nc2c1CN(C(C)C)C2=O` (stereo not drawn) [Example 290, 2-(4-acetylpiperazin-1-yl)-6-isopropyl-4-[2-[(2-methoxyphenyl)methyl]pyrrolidin-1-yl]-5H-pyrrolo[3,4-d]pyrimidin-7-one]: 2000 nM. Consider `CCN1Cc2c(NC(C)(C)Cc3ccc(F)cc3)nc(N3CCN(C(C)=O)CC3)nc2C1=O` [Example 118, 2-(4-acetylpiperazin-1-yl)-6-ethyl-4-{[2-(4-fluorophenyl)-1,1-dimethylethyl]amino}-5,6-dihydro-7H-pyrrolo[3,4-d]pyrimidin-7-one], for which the half-maximal inhibitory concentration (IC50) amounted to 1100 nM. Turning to `CC(C)C(=O)N1CCN(c2nc(NC(C)(C)Cc3ccc(Cl)cc3)c3c(n2)C(=O)N(C(C)C)C3)CC1` [Example 124, 4-{[2-(4-chlorophenyl)-1,1-dimethylethyl]amino}-2-(4-isobutyrylpiperazin-1-yl)-6-isopropyl-5,6-dihydro-7H-pyrrolo[3,4-d]pyrimidin-7-one], the IC50 is 3000 nM.

For `CC(=O)N1CCN(c2nc(N[C@H](C)c3ccc(C(C)(C)C#N)cc3)c3c(n2)C(=O)N(C(C)C)C3)CC1` [Example 161, (R)-2-(4-(1-(2-(4-acetylpiperazin-1-yl)-6-isopropyl-7-oxo-6,7-dihydro-5H-pyrrolo[3,4-d]pyrimidin-4-ylamino)ethyl)phenyl)-2-methylpropanenitrile], the IC50 was 720 nM. Consider `CC(C)N1Cc2c(nc(N3CCNC(=O)C3)nc2N2CCCC2Cc2ccc(Cl)cc2)C1=O` (stereo not drawn) [Example 49, 4-[2-(4-chlorobenzyl)pyrrolidin-1-yl]-6-isopropyl-2-(3-oxopiperazin-1-yl)-5,6-dihydro-7H-pyrrolo[3,4-d]pyrimidin-7-one], for which the IC50 was 2000 nM. With `CC(=O)N1CCN(c2nc(NCc3ccc4ccccc4n3)c3c(n2)C(=O)N(C(C)C)C3)CC1` [Example 248, 2-(4-acetylpiperazin-1-yl)-6-isopropyl-4-(quinolin-2-ylmethylamino)-5H-pyrrolo[3,4-d]pyrimidin-7(6H)-one] the figure was 6300 nM. For `CC(=O)N1CCN(c2nc3c(c(N(C)Cc4ccc(Cl)cc4)n2)CN(C(C)C)C3=O)CC1` [Example 111, 2-(4-acetylpiperazin-1-yl)-4-[(4-chlorobenzyl)(methyl)amino]-6-isopropyl-5,6-dihydro-7H-pyrrolo[3,4-d]pyrimidin-7-one], the concentration for half-maximal inhibition (IC50) came out at 9000 nM. For `CC(=O)N1CCN(c2nc3c(c(N4CCCC4Cc4ccccc4Cl)n2)CN(C(C)C)C3=O)CC1` (stereo not drawn) [Example 46, 2-(4-acetylpiperazin-1-yl)-4-[2-(2-chlorobenzyl)pyrrolidin-1-yl]-6-isopropyl-5,6-dihydro-7H-pyrrolo[3,4-d]pyrimidin-7-one], the concentration for half-maximal inhibition (IC50) stood at 2300 nM. On to `O=C1c2nc(N3CCOCC3)nc(NC(c3ccccc3)c3ccccc3)c2CN1C1CC1` [Example 74, 4-(Benzhydryl-amino)-6-cyclopropyl-2-morpholin-4-yl-5,6-dihydro-pyrrolo[3,4-d]pyrimidin-7-one], for which the IC50 amounted to 4300 nM. Regarding `CCOc1ccccc1[C@@H](C)Nc1nc(N2CCN(C(C)=O)CC2)nc2c1CN(C(C)C)C2=O` [Example 173, (R)-2-(4-acetylpiperazin-1-yl)-4-(1-(2-ethoxyphenyl)ethylamino)-6-isopropyl-5H-pyrrolo[3,4-d]pyrimidin-7(6H)-one], the half-inhibitory concentration (IC50) stood at 5400 nM. Consider `CC(C)N1Cc2c(NCc3cnc4ccccc4c3)nc(NC3CN4CCC3CC4)nc2C1=O` (stereo not drawn) [Example 214, 6-isopropyl-4-(3-quinolylmethylamino)-2-(quinuclidin-3-ylamino)-5H-pyrrolo[3,4-d]pyrimidin-7-one], for which the 50% inhibitory concentration (IC50) turned out to be 2300 nM.

Regarding `CCC(=O)N1CCN(c2nc(NC(C)(C)Cc3ccc(Cl)cc3)c3c(n2)C(=O)N(C(C)C)C3)CC1` [Example 71, 4-{[2-(4-chlorophenyl)-1,1-dimethylethyl]amino}-6-isopropyl-2-(4-propionylpiperazin-1-yl)-5,6-dihydro-7H-pyrrolo[3,4-d]pyrimidin-7-one], the IC50 was 130 nM.

`CC(=O)N1CCN(c2nc(N[C@H](C)c3ccc4c(c3)CCO4)c3c(n2)C(=O)N(C(C)C)C3)CC1` [Example 160, (R)-2-(4-acetylpiperazin-1-yl)-4-(1-(2,3-dihydrobenzofuran-5-yl)ethylamino)-6-isopropyl-5H-pyrrolo[3,4-d]pyrimidin-7(6H)-one]: the IC50 is 320 nM. Turning to `CC(=O)N1CCN(c2nc(NCc3cc(-c4ccccc4)n(C)n3)c3c(n2)C(=O)N(C(C)C)C3)CC1` [Example 153, 4-(4-acetylpiperazin-1-yl)-2-[(1-methyl-5-phenyl-pyrazol-3-yl)methylamino]-8-propan-2-yl-3,5,8-triazabicyclo[4.3.0]nona-1,3,5-trien-7-one], the IC50 worked out at 120 nM. Next, `CC(C)N1Cc2c(NC(C)(C)Cc3ccc(Cl)cc3)nc(N3CCN(C(=O)N(C)C)CC3)nc2C1=O` [Example 127, 4-(4-{[2-(4-chlorophenyl)-1,1-dimethylethyl]amino}-6-isopropyl-7-oxo-6,7-dihydro-5H-pyrrolo[3,4-d]pyrimidin-2-yl)-N,N-dimethylpiperazine-1-carboxamide]: 2200 nM.
